{"source": "patent US11939361B2", "about": "“Compositions of peptide inhibitors of Interleukin-23 receptor” (Janssen Pharmaceutica NV, priority 2020, dated 2024)", "tested_on": "rat IL-23 induced skin inflammation model", "assay": "Rat IL-23 induced ear thickening", "type": "in vivo, Sprague-Dawley rats", "set-up": "key to IL-23 induced ear thickening, comparison to control (significance): ns: not significant; **: p < 0.01; ***: p < 0.001; ****: p < 0.0001", "conditions": "for IL-23 induced ear thickening, comparison to control (significance): control Vehicle", "protocol": "Ear inflammation was induced in Sprague-Dawley rats by daily intradermal injection of recombinant rat IL-23 on study days 0-3. Treatment with the peptide of SEQ ID NO: 1 (dose response by oral gavage; 1, 3, 10, 30, 100, and 300 mg/kg, twice a day) was initiated prophylactically starting one day prior to and continued through day 3 after induction of inflammation. All rats were humanely euthanized on day 4. An anti-IL-23 monoclonal antibody (administered intraperitoneally on days −1 and day 3) was included in all studies as a positive control and comparator.\nRecombinant rat IL-23 was diluted with PBS to a concentration of 75 μg/mL, divided into 2.0 mL aliquots, and stored at −80° C. Daily from day 0 through day 3, rats were anesthetized with isoflurane and IL-23 was intradermally injected (i.d.) into the right ear (1.5 μg in a volume of 20 μL). In the control group, 20 μL of PBS was injected.\nStarting the morning prior to IL-23 injection through the evening of day 3, rats were dosed with either vehicle (phosphate buffer) or the peptide of SEQ ID NO: 1 compound twice daily (approximately 10 hours apart between doses during the day) by oral gavage (p.o.) in a volume of 5 mL/kg. In one experiment, the peptide of SEQ ID NO: 1 was also administered subcutaneously (s.c.) in a volume of 5 mL/kg.\nAnti-IL-23p19 antibody or isotype antibody was administered via intraperitoneal injection (i.p.) in a volume of 5 mL/kg on days −1 and 3.\nThe purpose of the rat ear thickening experiment is to determine whether the orally dosed peptide of SEQ ID NO: 1 has sufficient systemic exposure to provide inhibition of IL-23R in skin tissue, thus modeling orally dosed therapeutic efficacy in psoriatic skin tissue. The animals from Example 19 were also used for Example 20. On day 0, prior to IL-23 injection, the ipsilateral ears averaged approximately 0.4 mm. In rats injected with saline, the ears did swell as a result of the repeated intradermal injections, by an average of 0.053 mm by day 4. By comparison, injection of IL-23 caused the ears of both vehicle-treated and isotype antibody-treated rats to progressively increase in thickness, reaching an average of approximately 0.240 to 0.242 mm by day 4, respectively. […] Reductions in ear thickness at doses of 2 mg/kg, s.c. and 20 mg/kg, p.o., q.d. were not statistically significant (FIG. 9 and Table 15).", "data": [{"smiles": "CC(=O)NCCCC[C@@H]1NC(=O)[C@H](Cc2c[nH]c3c(C)cccc23)NC(=O)[C@H]([C@@H](C)O)NC(=O)[C@H](CC(N)=O)NC(=O)[C@@H](NC(C)=O)C(C)(C)SSC(C)(C)[C@@H](C(=O)N[C@@H](Cc2ccc(OCCN)cc2)C(=O)N[C@@H](Cc2ccc3ccccc3c2)C(=O)NC2(C(=O)N[C@@H](CCC(=O)O)C(=O)N[C@@H](CC(N)=O)C(=O)N[C@@H](Cc3cccnc3)C(=O)N(C)CC(N)=O)CCOCC2)NC1=O", "note": "[SEQ ID NO: 1, Ac-[Pen]*—N-T-[W(7-Me)]-[Lys(Ac)]-[Pen]*-Phe[4-(2-aminoethoxy)]-[2-Nal]-[THP]-E-N-[3-Pal]-Sarc-NH2]", "values": [{"measurement": "IL-23 induced ear thickening, comparison to control (significance)", "setting": "1 mg/kg, p.o., b.i.d., Day 1", "result": "ns"}, {"measurement": "IL-23 induced ear thickening, comparison to control (significance)", "setting": "1 mg/kg, p.o., b.i.d., Day 2", "result": "ns"}, {"measurement": "IL-23 induced ear thickening, comparison to control (significance)", "setting": "1 mg/kg, p.o., b.i.d., Day 3", "result": "**** (p < 0.0001)"}, {"measurement": "IL-23 induced ear thickening, comparison to control (significance)", "setting": "1 mg/kg, p.o., b.i.d., Day 4", "result": "**** (p < 0.0001)"}, {"measurement": "IL-23 induced ear thickening, comparison to control (significance)", "setting": "2 mg/kg, s.c., b.i.d., Day 1", "result": "ns"}, {"measurement": "IL-23 induced ear thickening, comparison to control (significance)", "setting": "2 mg/kg, s.c., b.i.d., Day 2", "result": "ns"}, {"measurement": "IL-23 induced ear thickening, comparison to control (significance)", "setting": "2 mg/kg, s.c., b.i.d., Day 3", "result": "ns"}, {"measurement": "IL-23 induced ear thickening, comparison to control (significance)", "setting": "2 mg/kg, s.c., b.i.d., Day 4", "result": "ns"}, {"measurement": "IL-23 induced ear thickening, comparison to control (significance)", "setting": "3 mg/kg, p.o., b.i.d., Day 1", "result": "ns"}, {"measurement": "IL-23 induced ear thickening, comparison to control (significance)", "setting": "3 mg/kg, p.o., b.i.d., Day 2", "result": "ns"}, {"measurement": "IL-23 induced ear thickening, comparison to control (significance)", "setting": "3 mg/kg, p.o., b.i.d., Day 3", "result": "*** (p < 0.001)"}, {"measurement": "IL-23 induced ear thickening, comparison to control (significance)", "setting": "3 mg/kg, p.o., b.i.d., Day 4", "result": "*** (p < 0.001)"}, {"measurement": "IL-23 induced ear thickening, comparison to control (significance)", "setting": "10 mg/kg, p.o., b.i.d., Day 1", "result": "ns"}, {"measurement": "IL-23 induced ear thickening, comparison to control (significance)", "setting": "10 mg/kg, p.o., b.i.d., Day 2", "result": "ns"}, {"measurement": "IL-23 induced ear thickening, comparison to control (significance)", "setting": "10 mg/kg, p.o., b.i.d., Day 3", "result": "*** (p < 0.001)"}, {"measurement": "IL-23 induced ear thickening, comparison to control (significance)", "setting": "10 mg/kg, p.o., b.i.d., Day 4", "result": "**** (p < 0.0001)"}, {"measurement": "IL-23 induced ear thickening, comparison to control (significance)", "setting": "20 mg/kg, p.o., q.d., Day 1", "result": "ns"}, {"measurement": "IL-23 induced ear thickening, comparison to control (significance)", "setting": "20 mg/kg, p.o., q.d., Day 2", "result": "ns"}, {"measurement": "IL-23 induced ear thickening, comparison to control (significance)", "setting": "20 mg/kg, p.o., q.d., Day 3", "result": "ns"}, {"measurement": "IL-23 induced ear thickening, comparison to control (significance)", "setting": "20 mg/kg, p.o., q.d., Day 4", "result": "ns"}, {"measurement": "IL-23 induced ear thickening, comparison to control (significance)", "setting": "30 mg/kg, p.o., b.i.d., Day 1", "result": "ns"}, {"measurement": "IL-23 induced ear thickening, comparison to control (significance)", "setting": "30 mg/kg, p.o., b.i.d., Day 3", "result": "**** (p < 0.0001)"}, {"measurement": "IL-23 induced ear thickening, comparison to control (significance)", "setting": "30 mg/kg, p.o., b.i.d., Day 4", "result": "**** (p < 0.0001)"}, {"measurement": "IL-23 induced ear thickening, comparison to control (significance)", "setting": "100 mg/kg, p.o., b.i.d., Day 1", "result": "ns"}, {"measurement": "IL-23 induced ear thickening, comparison to control (significance)", "setting": "100 mg/kg, p.o., b.i.d., Day 2", "result": "ns"}, {"measurement": "IL-23 induced ear thickening, comparison to control (significance)", "setting": "100 mg/kg, p.o., b.i.d., Day 3", "result": "**** (p < 0.0001)"}, {"measurement": "IL-23 induced ear thickening, comparison to control (significance)", "setting": "100 mg/kg, p.o., b.i.d., Day 4", "result": "**** (p < 0.0001)"}, {"measurement": "day 4 ear swelling, average", "setting": "300 mg/kg, b.i.d., oral", "result": 0.120, "unit": "mm"}, {"measurement": "IL-23 induced ear thickening, comparison to control (significance)", "setting": "300 mg/kg, p.o., b.i.d., Day 1", "result": "ns"}, {"measurement": "IL-23 induced ear thickening, comparison to control (significance)", "setting": "300 mg/kg, p.o., b.i.d., Day 2", "result": "ns"}, {"measurement": "IL-23 induced ear thickening, comparison to control (significance)", "setting": "300 mg/kg, p.o., b.i.d., Day 3", "result": "*** (p < 0.001)"}, {"measurement": "IL-23 induced ear thickening, comparison to control (significance)", "setting": "300 mg/kg, p.o., b.i.d., Day 4", "result": "**** (p < 0.0001)"}, {"measurement": "efficacy on ear thickening", "setting": "doses of 10 mg/kg (p.o., b.i.d.) and above", "result": "equaled or exceeded that of anti-IL-23 antibody treatment"}, {"measurement": "IL-23 induced ear thickening", "setting": "orally administered", "result": "prevented"}]}]}
